Source: patent publication US20240174671A1, “New 2,3-Dihydro-1H-pyrrolo[3,2-b]pyridine Derivatives as Sigma Ligands” (ACONDICIONAMIENTO TARRASENSE, priority 2021, published 2024)
pKi: −log10 of the molar value. Where a name gives a salt, the structure may show the parent alone. Read-outs that look alike come from different tables or passages of the source.

Experiments:
[1] = target: T1, human σ1 receptor (Homo sapiens, UniProt Q99720); assay: Human σ1 receptor radioligand assay ([3H](+)-pentazocine); assay type: binding
T1 construct: expressed in transfected cells; host or cells: HEK-293
T1 sequence (Q99720 whole entry): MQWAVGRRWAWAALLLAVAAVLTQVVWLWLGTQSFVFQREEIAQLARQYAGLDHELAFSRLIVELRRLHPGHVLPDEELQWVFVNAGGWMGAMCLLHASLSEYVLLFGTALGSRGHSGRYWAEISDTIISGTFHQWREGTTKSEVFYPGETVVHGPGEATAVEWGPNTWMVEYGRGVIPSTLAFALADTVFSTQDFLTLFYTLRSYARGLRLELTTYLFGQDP
Experimental: Human σ1 Receptor Radioligand Assay
(§1) NBS (non-specific binding) was measured by adding 10 μM haloperidol. The binding of the test compound was measured at either one concentration (% inhibition at 1 or 10 µM) or five different concentrations to determine affinity values (Ki). Plates were incubated at 37° C. for 120 minutes. After the incubation period, the reaction mix was then transferred to MultiScreen HTS, FC plates (Millipore), filtered and plates were washed 3 times with ice-cold 10 mM Tris-HCL (pH7.4). Filters were dried and counted at approximately 40% efficiency in a MicroBeta scintillation counter (Perkin-Elmer) using EcoScint liquid scintillation cocktail.

[2] = target: T2, human σ2/TMEM97 receptor (Homo sapiens, UniProt Q5BJF2); assay: Binding assay to human σ2/TMEM97 receptor ([3H]-DTG)
T2 construct: expressed in transfected cells; host or cells: HEK-293
T2 sequence (Q5BJF2 whole entry): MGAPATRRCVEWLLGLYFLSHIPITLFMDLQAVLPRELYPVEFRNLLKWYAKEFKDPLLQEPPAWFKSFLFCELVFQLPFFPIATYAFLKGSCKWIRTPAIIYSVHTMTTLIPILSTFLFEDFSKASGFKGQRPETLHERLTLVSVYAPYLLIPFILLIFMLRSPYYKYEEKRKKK
Experimental: Binding Assay to Human σ2/TMEM97 Receptor.
as §1, with “Transfected HEK-293 membranes (15 μg) were incubated with 10 nM [^3H]-1,3-Di-o-tolylguanidine (DTG) in assay buffer containing Tris-HCl 50 mM at pH 8.0. NSB” for “NBS”, “25°” for “37°”, “was” for “was then”, “and” for “and plates were”, “(pH 8.0).” for “(pH7.4).”

[3] = transfected HEK-293 membranes, 10 nM [3H]-DTG, 25° C., 120 minutes, read-out: Binding σ-[…] (binding to σ2-receptor expressed as Ki)
[4] = transfected HEK-293 membranes, 5 nM [3H](+)-pentazocine, 37° C., 120 minutes, read-out: Binding σ-[…] (binding to σ1-receptor expressed as Ki)

Compound	pKi [1]	pKi [2, 3]	pKi [1, 4]	pKi [2]
CN(C)[C@@H](CNC(=O)N1CC(C)(C)c2nc(C#N)ccc21)c1ccccc1 [Example 15, (R)-5-cyano-N-(2-(dimethylamino)-2-phenylethyl)-3,3-dimethyl-2,3-dihydro-1H-pyrrolo[3,2-b]pyridine-1-carboxamide]	> 7.00	< 6.00		
CC1(C)CN(C(=O)[C@H]2CC[C@H](NCc3ccccc3)CC2)c2cccnc21 [Example 128, ((1r,4r)-4-(benzylamino)cyclohexyl)(3,3-dimethyl-2,3-dihydro-1H-pyrrolo[3,2-b]pyridin-1-yl)methanone dihydrochloride]		6.30 to 7.00	> 7.00	
CN(Cc1ccccc1)[C@H]1CC[C@@H](C(=O)N2CC(C)(C)c3ncccc32)CC1 [Example 127, ((1s,4s)-4-(benzyl(methyl)amino)cyclohexyl)(3,3-dimethyl-2,3-dihydro-1H-pyrrolo[3,2-b]pyridin-1-yl)methanone]		> 7.00	> 7.00	
CC1(C)CN(C(=O)NC2CC3(CCN(Cc4ccccc4)CC3)C2)c2cccnc21 [Example 104, N-(7-benzyl-7-azaspiro[3.5]nonan-2-yl)-3,3-dimethyl-2,3-dihydro-1H-pyrrolo[3,2-b]pyridine-1-carboxamide]		6.30 to 7.00	6.30 to 7.00	
O=C(N1CC[C@H](NCCc2ccccc2)C1)N1CCc2ncccc21 [Example 97, (S)-(2,3-dihydro-1H-pyrrolo[3,2-b]pyridin-1-yl)(3-(phenethylamino)pyrrolidin-1-yl)methanone]		< 6.00	6.00 to 6.30	
CC1(C)CN(C(=O)N2CCC3(CCN(Cc4ccc(F)cc4)CC3)C2)c2cccnc21 [Example 149, (3,3-dimethyl-2,3-dihydro-1H-pyrrolo[3,2-b]pyridin-1-yl)(8-(4-fluorobenzyl)-2,8-diazaspiro[4.5]decan-2-yl)methanone]		> 7.00	> 7.00	
CC1(C)CN(C(=O)N2CCC3(CCN(CCC4CCOCC4)CC3)C2)c2cccnc21 [Example 156, (3,3-dimethyl-2,3-dihydro-1H-pyrrolo[3,2-b]pyridin-1-yl)(8-(2-(tetrahydro-2H-pyran-4-yl)ethyl)-2,8-diazaspiro[4.5]decan-2-yl)methanone]	6.30 to 7.00	> 7.00		
Cc1ccc2c(n1)C(C)(C)CN2C(=O)N1CCC(N(C)Cc2cccnc2)CC1 [Example 74, (4-(methyl(pyridin-3-ylmethyl)amino)piperidin-1-yl)(3,3,5-trimethyl-2,3-dihydro-1H-pyrrolo[3,2-b]pyridin-1-yl)methanone]		6.00 to 6.30	< 6.00	
Cc1ccc2c(n1)C(C)(C)CN2C(=O)N1CCC2(CCN(Cc3ccccn3)CC2)C1 [Example 94, (8-(pyridin-2-ylmethyl)-2,8-diazaspiro[4.5]decan-2-yl)(3,3,5-trimethyl-2,3-dihydro-1H-pyrrolo[3,2-b]pyridin-1-yl)methanone]		6.30 to 7.00	< 6.00	
CN[C@@H](CNC(=O)N1CC(C)(C)c2nc(C)ccc21)c1ccccc1 [Example 112, (R)-3,3,5-trimethyl-N-(2-(methylamino)-2-phenylethyl)-2,3-dihydro-1H-pyrrolo[3,2-b]pyridine-1-carboxamide]		< 6.00	6.30 to 7.00	
CN(Cc1ccc(F)c(C#N)c1)C1CCN(C(=O)N2CC(C)(C)c3ncccc32)CC1 [Example 45, 5-(((1-(3,3-dimethyl-2,3-dihydro-1H-pyrrolo[3,2-b]pyridine-1-carbonyl)piperidin-4-yl)(methyl)amino)methyl)-2-fluorobenzonitrile]		> 7.00	< 6.00	
CCOCCN1CCC(NC(=O)N2CC(C)(C)c3nc(C)ccc32)CC1 [Example 28, N-(1-(2-ethoxyethyl)piperidin-4-yl)-3,3,5-trimethyl-2,3-dihydro-1H-pyrrolo[3,2-b]pyridine-1-carboxamide]		< 6.00	6.30 to 7.00	
Cc1ccc2c(n1)C(C)(C)CN2C(=O)NC[C@@H](c1ccc(F)cc1)N(C)C [Example 33, (R)—N-(2-(dimethylamino)-2-(4-fluorophenyl)ethyl)-3,3,5-trimethyl-2,3-dihydro-1H-pyrrolo[3,2-b]pyridine-1-carboxamide]		< 6.00	> 7.00	
CN(Cc1ccccc1)C1CCN(C(=O)N2CCc3ncccc32)CC1 [Example 51, (4-(benzyl(methyl)amino)piperidin-1-yl)(2,3-dihydro-1H-pyrrolo[3,2-b]pyridin-1-yl)methanone]		6.30 to 7.00	> 7.00	
CC1(C)CN(C(=O)N2CCC3(CCN(CC4CCOCC4)CC3)C2)c2cccnc21 [Example 144, (3,3-dimethyl-2,3-dihydro-1H-pyrrolo[3,2-b]pyridin-1-yl)(8-((tetrahydro-2H-pyran-4-yl)methyl)-2,8-diazaspiro[4.5]decan-2-yl)methanone]		> 7.00	6.30 to 7.00	
Cc1ccc2c(n1)C(C)(C)CN2C(=O)N1CCC(NCc2ccccc2)CC1 [Example 115, (4-(benzylamino)piperidin-1-yl)(3,3,5-trimethyl-2,3-dihydro-1H-pyrrolo[3,2-b]pyridin-1-yl)methanone]		6.30 to 7.00	< 6.00	
Cc1ccc2c(n1)C(C)(C)CN2C(=O)NC1CCN(Cc2ccc(C#N)cc2)CC1 [Example 24, N-(1-(4-cyanobenzyl)piperidin-4-yl)-3,3,5-trimethyl-2,3-dihydro-1H-pyrrolo[3,2-b]pyridine-1-carboxamide]		< 6.00	> 7.00	
Cc1ccc2c(n1)C(C)(C)CN2C(=O)C1CN(Cc2ccccc2)C1 [Example 131, (1-benzylazetidin-3-yl)(3,3,5-trimethyl-2,3-dihydro-1H-pyrrolo[3,2-b]pyridin-1-yl)methanone]		< 6.00	> 7.00	
CN(Cc1cc(C#N)ccc1F)C1CCN(C(=O)N2CC(C)(C)c3ncccc32)CC1 [Example 77, 3-(((1-(3,3-dimethyl-2,3-dihydro-1H-pyrrolo[3,2-b]pyridine-1-carbonyl)piperidin-4-yl)(methyl)amino)methyl)-4-fluorobenzonitrile]		6.30 to 7.00	< 6.00	
CN(C)[C@@H](CNC(=O)N1CC(C)(C)c2ncc(Cl)cc21)c1ccccc1 [Example 14, (R)-6-chloro-N-(2-(dimethylamino)-2-phenylethyl)-3,3-dimethyl-2,3-dihydro-1H-pyrrolo[3,2-b]pyridine-1-carboxamide]		< 6.00	6.30 to 7.00	
CN(Cc1ccccc1)[C@H]1CCCN(C(=O)N2CCc3ncccc32)C1 [Example 61, (S)-(3-(benzyl(methy)amino)piperidin-1-yl)(2,3-dihydro-1H-pyrrolo[3,2-b]pyridin-1-yl)methanone]		> 7.00	< 6.00	
Cc1ccc2c(n1)C(C)(C)CN2C(=O)N1CCC2(CCN(CCc3ccccc3)CC2)C1 [Example 91, (8-phenethyl-2,8-diazaspiro[4.5]decan-2-yl)(3,3,5-trimethyl-2,3-dihydro-1H-pyrrolo[3,2-b]pyridin-1-yl)methanone]			6.00 to 6.30	> 7.00
CC1(C)CN(C(=O)N2CCC3(CCN(Cc4ccc(C#N)cc4F)CC3)C2)c2cccnc21 [Example 157, 4-((2-(3,3-dimethyl-2,3-dihydro-1H-pyrrolo[3,2-b]pyridine-1-carbonyl)-2,8-diazaspiro[4.5]decan-8-yl)methyl)-3-fluorobenzonitrile]		> 7.00	6.30 to 7.00	
CC1(C)CN(C(=O)N2CCC3(CCN(Cc4ccc(C#N)cc4F)CC3)CC2)c2cccnc21 [Example 165, 4-((9-(3,3-dimethyl-2,3-dihydro-1H-pyrrolo[3,2-b]pyridine-1-carbonyl)-3,9-diazaspiro[5.5]undecan-3-yl)methyl)-3-fluorobenzonitrile]		> 7.00	> 7.00	
Cc1ccc2c(n1)C(C)(C)CN2C(=O)[C@H]1CC[C@H](N(C)Cc2ccccc2)CC1 [Example 140, ((1r,4r)-4-(benzyl(methyl)amino)cyclohexyl)(3,3,5-trimethyl-2,3-dihydro-1H-pyrrolo[3,2-b]pyridin-1-yl)methanone]		> 7.00	> 7.00	
Cc1ccc2c(n1)C(C)(C)CN2C(=O)[C@H]1CC[C@H](N(C)Cc2c(F)cccc2F)CC1 [Example 171, ((1r,4r)-4-((2,6-difluorobenzyl)(methyl)amino)cyclohexyl)(3,3,5-trimethyl-2,3-dihydro-1H-pyrrolo[3,2-b]pyridin-1-yl)methanone]		> 7.00	> 7.00	
Cc1ccc2c(n1)C(C)(C)CN2C(=O)N1CCC[C@H](N(C)CCc2ccccc2)C1 [Example 54, (S)-(3-(methyl(phenethyl)amino)piperidin-1-yl)(3,3,5-trimethyl-2,3-dihydro-1H-pyrrolo[3,2-b]pyridin-1-yl)methanone]	6.30 to 7.00	> 7.00		
Cc1ccc2c(n1)C(C)(C)CN2C(=O)NCC1CN(Cc2ccccc2)C1 [Example 82, N-((1-benzylazetidin-3-yl)methyl)-3,3,5-trimethyl-2,3-dihydro-1H-pyrrolo[3,2-b]pyridine-1-carboxamide]		> 7.00	6.30 to 7.00	
